{"source": "patent US8003637B2", "about": "“Stabilized atypical antipsychotic formulation” (Handa Pharmaceuticals, LLC, priority 2008, dated 2011)", "origin": "cited, not measured here", "conditions": "Merck Index", "note": "Like-named read-outs stand apart in the source and are kept apart here.", "data": [{"molecule": "O=C(O)/C=C/C(=O)O", "note": "[fumaric acid, (E)-butenedioic acid]", "values": [{"measurement": "amount soluble in 100 grams of water", "setting": "25° C.", "result": 0.63, "unit": "grams"}]}, {"molecule": "O=C(O)CCC(=O)O", "note": "[succinic acid, 1,4-butanedioic acid]", "values": [{"measurement": "volume of water in which 1 gram can dissolve", "setting": "boiling water", "result": 1, "unit": "mL"}, {"measurement": "volume of water in which 1 gram can dissolve", "setting": "cold water", "result": 13, "unit": "mL"}]}]}
